Here are results for 6 molecules from ChEMBL document CHEMBL5212743, “Selectivity Literature for EUbOPEN Chemogenomics Library wave 3” (2023).

Assay [1] concerns the target T1, Mitogen-activated protein kinase 15 (Homo sapiens) (UniProt Q8TD08).
T1 sequence (whole entry): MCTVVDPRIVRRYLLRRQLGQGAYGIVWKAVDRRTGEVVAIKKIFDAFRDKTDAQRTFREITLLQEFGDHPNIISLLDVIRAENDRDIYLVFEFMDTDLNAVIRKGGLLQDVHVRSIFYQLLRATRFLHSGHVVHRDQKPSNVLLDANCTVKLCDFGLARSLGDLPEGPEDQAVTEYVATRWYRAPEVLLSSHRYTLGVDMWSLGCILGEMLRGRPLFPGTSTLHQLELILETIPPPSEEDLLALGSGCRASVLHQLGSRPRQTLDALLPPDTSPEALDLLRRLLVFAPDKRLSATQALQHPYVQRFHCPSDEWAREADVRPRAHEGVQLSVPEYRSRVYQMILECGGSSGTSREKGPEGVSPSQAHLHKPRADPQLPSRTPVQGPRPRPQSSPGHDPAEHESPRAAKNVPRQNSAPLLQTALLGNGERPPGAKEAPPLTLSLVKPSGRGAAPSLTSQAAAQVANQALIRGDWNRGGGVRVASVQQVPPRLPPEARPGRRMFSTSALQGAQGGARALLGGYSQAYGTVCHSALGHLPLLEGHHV
Description: Selectivity interaction (KinomeScan (DiscoverX)) EUB0000702a MAPK15. Particulars: at 1 µM.

In assay [2] the target is T2, Serine/threonine-protein kinase TAO3 (Homo sapiens) (UniProt Q9H2K8).
T2 sequence (whole entry): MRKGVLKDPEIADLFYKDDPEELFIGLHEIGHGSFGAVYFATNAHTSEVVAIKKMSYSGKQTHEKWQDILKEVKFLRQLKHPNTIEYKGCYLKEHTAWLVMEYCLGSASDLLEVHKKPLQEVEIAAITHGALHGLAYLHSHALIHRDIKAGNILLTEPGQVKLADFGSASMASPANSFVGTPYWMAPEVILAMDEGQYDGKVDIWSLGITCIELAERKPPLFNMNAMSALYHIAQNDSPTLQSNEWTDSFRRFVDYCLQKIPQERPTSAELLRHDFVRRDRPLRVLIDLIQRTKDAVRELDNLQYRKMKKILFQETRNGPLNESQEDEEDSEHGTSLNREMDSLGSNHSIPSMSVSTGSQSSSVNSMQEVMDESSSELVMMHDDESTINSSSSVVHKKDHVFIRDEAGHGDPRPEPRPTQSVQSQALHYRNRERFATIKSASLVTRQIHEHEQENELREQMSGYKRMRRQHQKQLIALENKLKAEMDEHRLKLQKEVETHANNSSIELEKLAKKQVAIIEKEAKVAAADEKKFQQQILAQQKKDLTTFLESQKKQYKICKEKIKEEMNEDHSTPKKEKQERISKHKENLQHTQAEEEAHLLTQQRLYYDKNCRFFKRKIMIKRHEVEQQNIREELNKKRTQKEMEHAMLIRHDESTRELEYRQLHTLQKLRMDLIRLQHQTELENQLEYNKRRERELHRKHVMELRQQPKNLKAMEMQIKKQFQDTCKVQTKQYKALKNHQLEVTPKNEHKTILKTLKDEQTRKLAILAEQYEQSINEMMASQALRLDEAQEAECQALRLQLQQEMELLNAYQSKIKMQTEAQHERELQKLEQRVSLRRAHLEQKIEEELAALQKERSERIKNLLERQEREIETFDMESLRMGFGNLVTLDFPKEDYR
Briefly: Selectivity interaction (KinomeScan (DiscoverX)) EUB0000178b TAOK3. The settings on record: at 1 µM.

For assay [3], the target named is Serine/threonine-protein kinase 24 (Homo sapiens) (UniProt Q9Y6E0). Description: Selectivity interaction (KinomeScan (DiscoverX)) EUB0000178b STK24. Particulars: at 1 µM.
The target in assay [4] is Non-receptor tyrosine-protein kinase TYK2 (Homo sapiens, UniProt P29597). Briefly: Selectivity interaction (Enzymatic assay) EUB0000178b TYK2.
Assay [5] addresses D(1A) dopamine receptor (Homo sapiens, UniProt P21728). Briefly: Selectivity interaction (GPCR panel (PDSP screen)) EUB0000138c DRD1.
Assay [6] concerns the target Aurora kinase B (Homo sapiens, UniProt Q96GD4). Particulars: at 1 µM.
For assay [7], the system named is Mast/stem cell growth factor receptor Kit (Homo sapiens), P10721 [D816V]. Briefly: Selectivity interaction (KinomeScan (DiscoverX)) EUB0000698a KIT. Particulars: at 10 µM.
The target of assay [8] is MAP kinase-activated protein kinase 5 (Homo sapiens) (UniProt Q8IW41). The settings on record: at 10 µM.
Assay [9] deals with Glycogen synthase kinase-3 beta (Homo sapiens, UniProt P49841). Description: Selectivity interaction (Kinase panel (University of Dundee)) EUB0000169b GSK3B. Particulars: at 10 µM.
For assay [10], the target named is RAC-alpha serine/threonine-protein kinase (Homo sapiens, UniProt P31749). Description: Selectivity interaction (Kinase panel (University of Dundee)) EUB0000169b AKT1. Particulars: at 10 µM.
Assay [11] concerns the target MAP kinase-activated protein kinase 2 (Homo sapiens, UniProt P49137). Description: Selectivity interaction (Kinase panel (University of Dundee)) EUB0000169b MAPKAPK2. The settings on record: at 10 µM.
Assay [12] concerns the target Mitogen-activated protein kinase 11 (Homo sapiens) (UniProt Q15759). Briefly: Selectivity interaction (Kinase panel (University of Dundee)) EUB0000169b MAPK11. The settings on record: at 10 µM.

Chain of D(1A) dopamine receptor (P21728 whole entry): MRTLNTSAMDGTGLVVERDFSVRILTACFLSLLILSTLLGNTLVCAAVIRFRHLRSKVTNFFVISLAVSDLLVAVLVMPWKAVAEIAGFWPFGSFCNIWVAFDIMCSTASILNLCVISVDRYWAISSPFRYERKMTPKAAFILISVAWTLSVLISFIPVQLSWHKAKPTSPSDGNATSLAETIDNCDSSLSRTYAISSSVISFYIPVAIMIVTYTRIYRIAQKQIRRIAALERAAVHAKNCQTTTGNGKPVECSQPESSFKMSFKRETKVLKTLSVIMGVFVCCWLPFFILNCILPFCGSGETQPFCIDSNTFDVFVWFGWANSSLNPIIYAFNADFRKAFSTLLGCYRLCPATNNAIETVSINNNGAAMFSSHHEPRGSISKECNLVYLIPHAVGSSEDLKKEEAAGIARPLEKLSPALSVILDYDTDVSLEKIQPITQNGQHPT
Chain of Mast/stem cell growth factor receptor Kit (Homo sapiens), P10721 [D816V] (P10721 whole entry D816V): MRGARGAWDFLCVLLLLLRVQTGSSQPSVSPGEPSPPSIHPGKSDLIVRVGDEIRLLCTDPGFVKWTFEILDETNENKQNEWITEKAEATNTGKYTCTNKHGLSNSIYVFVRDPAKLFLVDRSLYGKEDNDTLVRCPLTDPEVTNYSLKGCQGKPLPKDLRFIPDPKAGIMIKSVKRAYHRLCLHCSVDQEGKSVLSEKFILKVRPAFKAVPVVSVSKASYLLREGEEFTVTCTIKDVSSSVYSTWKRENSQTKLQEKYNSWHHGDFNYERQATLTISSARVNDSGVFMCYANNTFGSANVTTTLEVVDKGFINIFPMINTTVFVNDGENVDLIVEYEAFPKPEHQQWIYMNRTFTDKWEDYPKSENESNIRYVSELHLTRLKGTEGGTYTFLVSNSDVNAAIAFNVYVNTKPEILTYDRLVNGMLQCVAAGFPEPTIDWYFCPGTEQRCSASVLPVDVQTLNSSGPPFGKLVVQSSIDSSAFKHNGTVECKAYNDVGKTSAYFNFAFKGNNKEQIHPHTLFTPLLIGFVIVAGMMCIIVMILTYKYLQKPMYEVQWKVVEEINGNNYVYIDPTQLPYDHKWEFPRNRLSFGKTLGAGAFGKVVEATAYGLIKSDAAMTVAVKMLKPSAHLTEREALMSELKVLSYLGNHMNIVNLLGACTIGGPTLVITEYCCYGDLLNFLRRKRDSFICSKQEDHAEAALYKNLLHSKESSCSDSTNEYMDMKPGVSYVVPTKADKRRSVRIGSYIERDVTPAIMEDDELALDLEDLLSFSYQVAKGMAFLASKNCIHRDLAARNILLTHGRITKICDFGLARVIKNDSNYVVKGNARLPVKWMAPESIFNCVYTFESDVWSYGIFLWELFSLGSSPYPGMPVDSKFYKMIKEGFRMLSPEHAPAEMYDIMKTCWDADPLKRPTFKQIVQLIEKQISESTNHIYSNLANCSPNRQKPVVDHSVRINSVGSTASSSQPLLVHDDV
Chain of RAC-alpha serine/threonine-protein kinase (P31749 whole entry): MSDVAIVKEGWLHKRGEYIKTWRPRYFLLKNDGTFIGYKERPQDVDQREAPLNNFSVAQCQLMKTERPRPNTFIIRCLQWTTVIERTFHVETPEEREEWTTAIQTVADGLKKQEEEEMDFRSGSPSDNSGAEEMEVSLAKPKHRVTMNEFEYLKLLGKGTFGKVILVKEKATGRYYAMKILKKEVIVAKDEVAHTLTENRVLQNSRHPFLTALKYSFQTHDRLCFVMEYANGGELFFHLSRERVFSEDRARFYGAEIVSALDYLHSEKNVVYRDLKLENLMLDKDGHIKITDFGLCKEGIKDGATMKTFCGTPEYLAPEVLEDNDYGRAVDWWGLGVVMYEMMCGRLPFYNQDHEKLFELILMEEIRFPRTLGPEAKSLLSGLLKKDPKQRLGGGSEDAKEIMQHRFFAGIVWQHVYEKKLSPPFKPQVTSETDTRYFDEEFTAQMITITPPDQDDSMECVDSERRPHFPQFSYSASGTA
Chain of MAP kinase-activated protein kinase 2 (P49137 whole entry, looked up): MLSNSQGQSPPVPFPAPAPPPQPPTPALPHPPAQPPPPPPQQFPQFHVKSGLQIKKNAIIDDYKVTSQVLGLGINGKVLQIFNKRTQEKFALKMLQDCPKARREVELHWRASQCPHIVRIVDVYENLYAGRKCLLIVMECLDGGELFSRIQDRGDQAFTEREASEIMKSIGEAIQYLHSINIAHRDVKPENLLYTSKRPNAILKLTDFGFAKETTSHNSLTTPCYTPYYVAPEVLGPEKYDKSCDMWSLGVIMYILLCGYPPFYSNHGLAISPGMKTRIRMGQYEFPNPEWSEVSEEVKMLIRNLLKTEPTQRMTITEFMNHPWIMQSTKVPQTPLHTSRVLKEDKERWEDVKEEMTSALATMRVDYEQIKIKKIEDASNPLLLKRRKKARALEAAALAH
Chain of Non-receptor tyrosine-protein kinase TYK2 (P29597 whole entry): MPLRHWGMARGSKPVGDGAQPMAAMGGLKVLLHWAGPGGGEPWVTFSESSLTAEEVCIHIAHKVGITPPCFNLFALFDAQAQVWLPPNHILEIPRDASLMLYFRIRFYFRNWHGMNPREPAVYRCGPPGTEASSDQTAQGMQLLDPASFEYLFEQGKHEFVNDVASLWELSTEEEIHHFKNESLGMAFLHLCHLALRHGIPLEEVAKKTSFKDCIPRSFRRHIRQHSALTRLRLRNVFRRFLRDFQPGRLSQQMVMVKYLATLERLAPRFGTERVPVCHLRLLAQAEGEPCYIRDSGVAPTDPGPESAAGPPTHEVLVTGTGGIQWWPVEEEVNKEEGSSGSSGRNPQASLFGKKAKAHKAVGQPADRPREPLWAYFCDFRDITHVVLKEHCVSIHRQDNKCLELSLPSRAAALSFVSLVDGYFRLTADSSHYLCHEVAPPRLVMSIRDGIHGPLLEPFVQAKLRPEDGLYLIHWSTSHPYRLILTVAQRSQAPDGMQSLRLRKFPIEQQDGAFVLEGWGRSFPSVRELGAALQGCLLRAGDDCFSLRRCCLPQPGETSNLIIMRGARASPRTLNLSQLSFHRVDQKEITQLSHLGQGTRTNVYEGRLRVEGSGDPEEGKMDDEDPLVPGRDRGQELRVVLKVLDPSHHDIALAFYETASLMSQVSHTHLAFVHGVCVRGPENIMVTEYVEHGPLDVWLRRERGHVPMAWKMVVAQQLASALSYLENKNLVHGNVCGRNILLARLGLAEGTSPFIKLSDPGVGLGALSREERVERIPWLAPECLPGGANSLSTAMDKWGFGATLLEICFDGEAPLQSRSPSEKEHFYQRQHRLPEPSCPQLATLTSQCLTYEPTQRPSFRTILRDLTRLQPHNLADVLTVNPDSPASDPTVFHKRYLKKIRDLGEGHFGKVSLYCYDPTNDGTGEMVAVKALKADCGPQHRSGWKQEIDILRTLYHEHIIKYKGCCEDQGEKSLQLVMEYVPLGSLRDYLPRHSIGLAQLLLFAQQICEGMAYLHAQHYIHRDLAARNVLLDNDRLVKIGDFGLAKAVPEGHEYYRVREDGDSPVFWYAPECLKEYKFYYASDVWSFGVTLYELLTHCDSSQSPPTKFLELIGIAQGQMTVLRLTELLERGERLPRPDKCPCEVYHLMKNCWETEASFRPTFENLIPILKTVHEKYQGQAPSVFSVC
Chain of Mitogen-activated protein kinase 11 (Homo sapiens) (Q15759 whole entry): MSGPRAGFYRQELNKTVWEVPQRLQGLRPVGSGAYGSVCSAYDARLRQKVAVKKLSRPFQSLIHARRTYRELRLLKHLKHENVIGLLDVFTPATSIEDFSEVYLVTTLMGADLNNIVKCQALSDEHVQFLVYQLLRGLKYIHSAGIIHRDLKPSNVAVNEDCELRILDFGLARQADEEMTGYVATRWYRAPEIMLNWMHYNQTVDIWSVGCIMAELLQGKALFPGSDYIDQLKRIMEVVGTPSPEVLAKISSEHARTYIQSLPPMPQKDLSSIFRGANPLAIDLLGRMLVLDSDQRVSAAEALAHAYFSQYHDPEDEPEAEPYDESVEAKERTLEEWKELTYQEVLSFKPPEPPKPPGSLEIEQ
Chain of Aurora kinase B (Q96GD4 whole entry): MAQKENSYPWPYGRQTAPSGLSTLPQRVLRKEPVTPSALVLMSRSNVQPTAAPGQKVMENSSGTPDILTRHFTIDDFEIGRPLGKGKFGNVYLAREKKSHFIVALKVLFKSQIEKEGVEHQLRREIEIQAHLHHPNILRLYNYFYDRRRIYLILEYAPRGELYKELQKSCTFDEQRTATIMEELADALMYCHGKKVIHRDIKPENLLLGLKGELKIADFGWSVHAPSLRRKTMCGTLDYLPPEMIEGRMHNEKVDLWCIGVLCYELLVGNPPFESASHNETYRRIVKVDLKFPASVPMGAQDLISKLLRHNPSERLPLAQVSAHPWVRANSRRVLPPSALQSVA
Chain of Serine/threonine-protein kinase 24 (Homo sapiens) (Q9Y6E0 whole entry, looked up): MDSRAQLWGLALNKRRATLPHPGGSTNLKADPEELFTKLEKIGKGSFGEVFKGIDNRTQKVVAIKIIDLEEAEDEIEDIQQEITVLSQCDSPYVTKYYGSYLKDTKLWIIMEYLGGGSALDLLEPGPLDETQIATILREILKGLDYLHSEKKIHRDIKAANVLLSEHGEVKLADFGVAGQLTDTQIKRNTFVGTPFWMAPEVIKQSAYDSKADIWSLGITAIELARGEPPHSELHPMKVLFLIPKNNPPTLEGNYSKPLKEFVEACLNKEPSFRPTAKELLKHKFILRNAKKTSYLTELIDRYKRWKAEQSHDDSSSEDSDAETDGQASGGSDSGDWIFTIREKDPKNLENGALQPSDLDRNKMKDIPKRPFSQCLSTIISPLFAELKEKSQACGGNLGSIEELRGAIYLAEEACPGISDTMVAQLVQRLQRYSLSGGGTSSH

`CN(c1ccnc(CNc2nc(Nc3ccc4c(c3)CC(=O)N4)ncc2C(F)(F)F)n1)S(C)(=O)=O` [PF-00911705] gave a % of control in assay [1] of 4.8%.

In general, IC50 refers to the midpoint of a concentration-inhibition curve. A lower IC50 goes with higher potency. As for `CN1C(=O)c2sccc2N(C)c2nc(Nc3ccc(S(N)(=O)=O)cc3)ncc21`, the % of control in [2] amounted to 4.5%; in assay [3], 0.9%. In addition, the IC50 in assay [4] is 0.254 µM.

Broadly, the Ki is the equilibrium dissociation constant of an inhibitor or competing ligand from its target. Lower therefore signals a stronger hold on the target. In assay [5], `CNC(=O)c1ccc(Nc2ncc(C(F)(F)F)c(NCc3nccnc3N(C)S(C)(=O)=O)n2)cc1` [DEFACTINIB] returned a Ki greater than 10 µM.

In assay [6], `CCOc1cn(-c2ccc(F)cc2C)nc1C(=O)Nc1ccc(Oc2ccnc3cc(OC)c(OC)cc23)c(F)c1` registered a % of control of less than 10%.

On to `COc1cc2ncn(-c3cc(OCc4ccccc4C(F)(F)F)c(C(N)=O)s3)c2cc1OC` [GW843682X], for which, in assay [7], the % of control was 1.4%.

On to `CC[C@@H]1C(=O)N(C)c2cnc(Nc3ccc(C(=O)NC4CCN(C)CC4)cc3OC)nc2N1C1CCCC1`, for which the % of control is 86% in assay [8]; 69% in assay [9]; 90% in [10]; 79% in [11]; 97% in assay [12].
